From PubChem BioAssay (NCI)
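Tested at 5 concentrations; 48 h exposure; 96-well plates; endpoints linearly interpolated, else capped at highest concentration. At the TGI there is no net growth.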

What was measured:
Experiment in all cases: inhibition of tumour cell growth, NCI panel, 48 h
A498 renal = system: A498 renal
CAKI-1 renal = system: CAKI-1 renal
HCT-116 colon = system: HCT-116 colon
HCT-15 colon = system: HCT-15 colon
LOX IMVI melanoma = system: LOX IMVI melanoma
MDA-N = system: MDA-N
NCI-H23 lung = system: NCI-H23 lung
OVCAR-4 ovarian = system: OVCAR-4 ovarian
RXF 393 renal = system: RXF 393 renal
SNB-75 CNS = system: SNB-75 CNS
SW-620 colon = system: SW-620 colon
T-47D breast = system: T-47D breast
UACC-62 melanoma = system: UACC-62 melanoma

COc1cccc2cc(C(=O)Nc3ccccc3)c(=N)oc12
TGI (A498 renal): > 100 µM
TGI (CAKI-1 renal): > 100 µM
TGI (HCT-116 colon): > 100 µM
TGI (HCT-15 colon): > 100 µM
TGI (LOX IMVI melanoma): > 100 µM
TGI (MDA-N): > 100 µM
TGI (NCI-H23 lung): > 100 µM
TGI (OVCAR-4 ovarian): > 100 µM
TGI (RXF 393 renal): > 100 µM
TGI (SNB-75 CNS): > 87.9 µM
TGI (SW-620 colon): > 100 µM
TGI (T-47D breast): > 31.4 µM
TGI (UACC-62 melanoma): > 100 µM

COC1=C(Cl)C(=O)c2c(O)ccc(O)c2C1=O
TGI (A498 renal): 2.63 µM
TGI (CAKI-1 renal): 1.6 µM
TGI (HCT-116 colon): 1.34 µM
TGI (HCT-15 colon): 3.23 µM
TGI (LOX IMVI melanoma): 3.63 µM
TGI (MDA-N): 4.8 µM
TGI (NCI-H23 lung): 4.62 µM
TGI (OVCAR-4 ovarian): 3.66 µM
TGI (RXF 393 renal): 2.69 µM
TGI (SNB-75 CNS): 17.1 µM
TGI (SW-620 colon): 0.46 µM
TGI (T-47D breast): 3.61 µM
TGI (UACC-62 melanoma): 4.12 µM

COC(=O)[C@]1(c2cc3ccccc3[nH]2)CC2CN(C(=O)OCc3ccccc3)C1CC2=O (stereo partly specified)
TGI (A498 renal): 42.9 µM
TGI (CAKI-1 renal): > 100 µM
TGI (HCT-116 colon): > 100 µM
TGI (HCT-15 colon): > 100 µM
TGI (LOX IMVI melanoma): 66.6 µM
TGI (MDA-N): > 100 µM
TGI (NCI-H23 lung): > 100 µM
TGI (OVCAR-4 ovarian): > 100 µM
TGI (RXF 393 renal): 68.2 µM
TGI (SNB-75 CNS): 64.6 µM
TGI (SW-620 colon): > 100 µM
TGI (T-47D breast): 76.2 µM
TGI (UACC-62 melanoma): 58.7 µM

CN(C)CCOc1ccc(-c2c(Oc3ccccc3)c(=O)oc3ccccc23)cc1
TGI (A498 renal): 27 µM
TGI (CAKI-1 renal): 48.7 µM
TGI (HCT-116 colon): 15.5 µM
TGI (HCT-15 colon): 22.6 µM
TGI (LOX IMVI melanoma): 25.9 µM
TGI (MDA-N): 4.7 µM
TGI (NCI-H23 lung): 28.6 µM
TGI (OVCAR-4 ovarian): 59 µM
TGI (RXF 393 renal): 17.6 µM
TGI (SNB-75 CNS): 23.6 µM
TGI (SW-620 colon): 23.8 µM
TGI (T-47D breast): 44.1 µM
TGI (UACC-62 melanoma): 27.2 µM

c1ccc(Nc2nn3c(CCCCCCCCc4nnc5sc(Nc6ccccc6)nn45)nnc3s2)cc1
TGI (A498 renal): > 100 µM
TGI (CAKI-1 renal): > 100 µM
TGI (HCT-116 colon): > 100 µM
TGI (HCT-15 colon): > 100 µM
TGI (LOX IMVI melanoma): > 100 µM
TGI (MDA-N): 46.6 µM
TGI (NCI-H23 lung): > 100 µM
TGI (OVCAR-4 ovarian): > 100 µM
TGI (RXF 393 renal): > 100 µM
TGI (SNB-75 CNS): 75.5 µM
TGI (SW-620 colon): > 100 µM
TGI (T-47D breast): 67.1 µM
TGI (UACC-62 melanoma): > 100 µM

CN1CCc2c(sc3ncn(Nc4ccc(Cl)cc4)c(=N)c23)C1
TGI (A498 renal): > 100 µM
TGI (CAKI-1 renal): > 100 µM
TGI (HCT-116 colon): > 100 µM
TGI (HCT-15 colon): > 100 µM
TGI (LOX IMVI melanoma): > 100 µM
TGI (MDA-N): > 100 µM
TGI (NCI-H23 lung): > 100 µM
TGI (OVCAR-4 ovarian): > 100 µM
TGI (RXF 393 renal): > 100 µM
TGI (SNB-75 CNS): > 100 µM
TGI (SW-620 colon): > 100 µM
TGI (T-47D breast): > 100 µM
TGI (UACC-62 melanoma): > 100 µM

O=c1[nH]c2nccn2c2c1SCCN2
TGI (A498 renal): > 100 µM
TGI (CAKI-1 renal): > 100 µM
TGI (HCT-116 colon): > 100 µM
TGI (HCT-15 colon): > 100 µM
TGI (LOX IMVI melanoma): > 100 µM
TGI (MDA-N): > 100 µM
TGI (NCI-H23 lung): > 100 µM
TGI (OVCAR-4 ovarian): > 100 µM
TGI (RXF 393 renal): > 100 µM
TGI (SNB-75 CNS): > 100 µM
TGI (SW-620 colon): > 100 µM
TGI (T-47D breast): > 100 µM
TGI (UACC-62 melanoma): > 100 µM

CCN(CC)CC1CN=C(N)O1 (stereo unspecified)
TGI (A498 renal): > 100 µM
TGI (CAKI-1 renal): > 100 µM
TGI (HCT-116 colon): > 100 µM
TGI (HCT-15 colon): > 100 µM
TGI (LOX IMVI melanoma): > 100 µM
TGI (MDA-N): > 100 µM
TGI (NCI-H23 lung): > 100 µM
TGI (OVCAR-4 ovarian): > 100 µM
TGI (RXF 393 renal): > 100 µM
TGI (SNB-75 CNS): > 100 µM
TGI (SW-620 colon): > 100 µM
TGI (T-47D breast): > 100 µM
TGI (UACC-62 melanoma): > 100 µM

CC1SC2(CCCCC2)N(NC(=O)CSc2nc3ccc(Cl)cc3c(=O)n2-c2ccccc2)C1=O (stereo unspecified)
TGI (A498 renal): 81.2 µM
TGI (CAKI-1 renal): > 100 µM
TGI (HCT-116 colon): 27.2 µM
TGI (HCT-15 colon): 45.2 µM
TGI (LOX IMVI melanoma): 37.4 µM
TGI (MDA-N): 36.2 µM
TGI (NCI-H23 lung): 57.4 µM
TGI (OVCAR-4 ovarian): > 100 µM
TGI (RXF 393 renal): 38.5 µM
TGI (SNB-75 CNS): 50.4 µM
TGI (SW-620 colon): 75.2 µM
TGI (T-47D breast): > 100 µM
TGI (UACC-62 melanoma): 37.5 µM

CCOC(=O)CCN1C(=O)C(=O)N(c2ccc(OC)cc2)C1=S
TGI (A498 renal): > 100 µM
TGI (CAKI-1 renal): > 100 µM
TGI (HCT-116 colon): > 100 µM
TGI (HCT-15 colon): > 100 µM
TGI (LOX IMVI melanoma): > 100 µM
TGI (MDA-N): > 100 µM
TGI (NCI-H23 lung): > 100 µM
TGI (OVCAR-4 ovarian): > 100 µM
TGI (RXF 393 renal): > 100 µM
TGI (SNB-75 CNS): > 100 µM
TGI (SW-620 colon): > 100 µM
TGI (T-47D breast): > 100 µM
TGI (UACC-62 melanoma): 48.5 µM

CCN(CC)c1ccc(/C=C2\CCc3ccc([N+](=O)[O-])cc3C2=O)cc1
TGI (A498 renal): 69.9 µM
TGI (CAKI-1 renal): > 100 µM
TGI (HCT-116 colon): > 100 µM
TGI (HCT-15 colon): > 100 µM
TGI (LOX IMVI melanoma): > 100 µM
TGI (MDA-N): 0.523 µM
TGI (NCI-H23 lung): > 100 µM
TGI (OVCAR-4 ovarian): > 100 µM
TGI (RXF 393 renal): > 29.9 µM
TGI (SNB-75 CNS): 24.3 µM
TGI (SW-620 colon): > 100 µM
TGI (T-47D breast): > 100 µM
TGI (UACC-62 melanoma): > 100 µM

O=c1c2cnccc2cc2c3ccccc3ccn12
TGI (A498 renal): > 100 µM
TGI (CAKI-1 renal): > 100 µM
TGI (HCT-116 colon): > 100 µM
TGI (HCT-15 colon): > 100 µM
TGI (LOX IMVI melanoma): > 100 µM
TGI (MDA-N): > 100 µM
TGI (NCI-H23 lung): > 100 µM
TGI (OVCAR-4 ovarian): > 100 µM
TGI (RXF 393 renal): > 100 µM
TGI (SNB-75 CNS): > 100 µM
TGI (SW-620 colon): > 100 µM
TGI (T-47D breast): > 100 µM
TGI (UACC-62 melanoma): > 100 µM

Cc1ccc(S(=O)(=O)N/N=C2\CC3CC4CCC2C4C3)cc1 (stereo unspecified)
TGI (A498 renal): > 100 µM
TGI (CAKI-1 renal): > 100 µM
TGI (HCT-116 colon): > 100 µM
TGI (HCT-15 colon): > 100 µM
TGI (LOX IMVI melanoma): > 100 µM
TGI (MDA-N): > 100 µM
TGI (NCI-H23 lung): > 100 µM
TGI (OVCAR-4 ovarian): > 100 µM
TGI (RXF 393 renal): > 100 µM
TGI (SNB-75 CNS): > 100 µM
TGI (SW-620 colon): > 100 µM
TGI (T-47D breast): > 100 µM
TGI (UACC-62 melanoma): > 100 µM

CC(C)(C)NC(=O)/C(=C\Sc1ccccc1)c1ccccc1
TGI (A498 renal): > 100 µM
TGI (CAKI-1 renal): > 100 µM
TGI (HCT-116 colon): > 100 µM
TGI (HCT-15 colon): > 100 µM
TGI (LOX IMVI melanoma): > 79.4 µM
TGI (MDA-N): > 100 µM
TGI (NCI-H23 lung): > 100 µM
TGI (OVCAR-4 ovarian): > 100 µM
TGI (RXF 393 renal): > 100 µM
TGI (SNB-75 CNS): > 100 µM
TGI (SW-620 colon): > 100 µM
TGI (T-47D breast): > 100 µM
TGI (UACC-62 melanoma): > 100 µM

COC(=O)c1c(C)cccc1C1CN=NC12Cc1cc(C)cc(C)c1C2=O (stereo unspecified)
TGI (A498 renal): 74.9 µM
TGI (CAKI-1 renal): > 100 µM
TGI (HCT-116 colon): > 100 µM
TGI (HCT-15 colon): > 100 µM
TGI (LOX IMVI melanoma): 41.5 µM
TGI (MDA-N): > 100 µM
TGI (NCI-H23 lung): 78.4 µM
TGI (OVCAR-4 ovarian): > 100 µM
TGI (RXF 393 renal): > 100 µM
TGI (SNB-75 CNS): 99.3 µM
TGI (SW-620 colon): > 100 µM
TGI (T-47D breast): > 100 µM
TGI (UACC-62 melanoma): > 100 µM

N/C(=N\Nc1ccc(Cl)cc1)c1cnccn1
TGI (A498 renal): > 100 µM
TGI (CAKI-1 renal): > 100 µM
TGI (HCT-116 colon): > 100 µM
TGI (HCT-15 colon): > 100 µM
TGI (LOX IMVI melanoma): > 100 µM
TGI (MDA-N): > 100 µM
TGI (NCI-H23 lung): > 100 µM
TGI (OVCAR-4 ovarian): > 100 µM
TGI (RXF 393 renal): > 100 µM
TGI (SNB-75 CNS): > 100 µM
TGI (SW-620 colon): > 100 µM
TGI (T-47D breast): > 100 µM
TGI (UACC-62 melanoma): > 100 µM

C=CCOC(OCC=C)/C(Br)=C/C
TGI (A498 renal): > 100 µM
TGI (CAKI-1 renal): > 100 µM
TGI (HCT-116 colon): 28.1 µM
TGI (HCT-15 colon): 89.3 µM
TGI (LOX IMVI melanoma): 39.5 µM
TGI (MDA-N): > 100 µM
TGI (NCI-H23 lung): > 100 µM
TGI (OVCAR-4 ovarian): 63.7 µM
TGI (RXF 393 renal): > 100 µM
TGI (SNB-75 CNS): > 100 µM
TGI (SW-620 colon): > 100 µM
TGI (T-47D breast): 72.6 µM
TGI (UACC-62 melanoma): > 100 µM
